Key:
EAAT2 [1] = test: EAAT2 Cellular Assay: EAAT2 protein levels in PA-EAAT2 cells by Western blot; format: cell-based, human; settings: 24 hr, relative to DMSO controls
Protocol: All of the compounds were initially evaluated in PA-EAAT2 cells, a primary astrocyte stably expressing human EAAT2 mRNAs (Kong et al., J Clin Invest. 2014:1255-67). Cells were treated with compound at 0.25 μM, 0.5 μM, 1 μM, 2.5 μM, 5 μM, 10 μM, and 25 μM for 24 hr and then harvested for measuring EAAT2 protein levels by Western blot analysis.

EAAT2 [2] = test: EAAT2 expression in mouse brain after single oral dose (semi-quantitative Western blot); format: in vivo; settings: mice, single dose by oral gavage, brains harvested at 24 h post-treatment
Protocol: Mice received a single dose of the compound (n=3/dose) by oral gavage. Brains were harvested at 24 h post-treatment. EAAT2 protein levels were analyzed by semi-quantitative Western blot analysis.

[3] = 10 μM (concentration that reaches maximum activity)
[4] = 2.5 μM (concentration that reaches maximum activity)
[5] = 5 μM (concentration that reaches maximum activity)
[6] = 0.25 μM (concentration that reaches maximum activity)
[7] = 0.5 μM (concentration that reaches maximum activity)
[8] = 1 μM (concentration that reaches maximum activity)

SMILES: O=C(Nc1ccc(-c2cccnc2)nn1)c1ccc(F)cc1
- Fold increase for EAAT2 at indicated concentration (maximum activity) (EAAT2 [1]; [3]): 2.1 ± 0.2 (10 μM) fold

SMILES: c1ccc(-c2ccc(OCc3ncco3)nn2)nc1
- Fold increase for EAAT2 at indicated concentration (maximum activity) (EAAT2 [1]; [4]): 1.9 ± 0.1 (2.5 μM) fold

SMILES: CN(C)CCOc1ccc(-c2ccccn2)nn1
- Fold increase for EAAT2 at indicated concentration (maximum activity) (EAAT2 [1]; [4]): 2.9 ± 0.2 (2.5 μM) fold

SMILES: c1ccc(COc2ccc(-c3ccccn3)nn2)nc1
- Fold increase for EAAT2 at indicated concentration (maximum activity) (EAAT2 [1]; [5]): 3.0 ± 0.1 (5 μM) fold

SMILES: Cn1cncc1C(=O)Nc1ccc(-c2ccccn2)nn1
- Fold increase for EAAT2 at indicated concentration (maximum activity) (EAAT2 [1]; [3]): 1.8± 0.2 (10 μM) fold

SMILES: O=S(=O)(Nc1ccc(-c2ccccn2)nn1)c1ccccc1F
- Fold increase for EAAT2 at indicated concentration (maximum activity) (EAAT2 [1]; [6]): 2.6 ± 0.2 (0.25 μM) fold

SMILES: O=S(=O)(Nc1ccc(-c2ccccn2)nn1)c1ccc(F)cc1
- Fold increase for EAAT2 at indicated concentration (maximum activity) (EAAT2 [1]; [7]): 2.4 ± 0.2 (0.5 μM) fold

SMILES: CN1CCC(C(=O)Nc2ccc(-c3ccccn3)nn2)CC1
- Fold increase for EAAT2 at indicated concentration (maximum activity) (EAAT2 [1]; [7]): 1.7 ± 0.1 (0.5 μM) fold

SMILES: O=C(Nc1ccc(-c2ccccn2)nn1)c1ncccn1
- Fold increase for EAAT2 at indicated concentration (maximum activity) (EAAT2 [1]; [7]): 1.5 ± 0.1 (0.5 μM) fold

SMILES: O=C(Nc1ccc(-c2ccccn2)nn1)c1cccnn1
- Fold increase for EAAT2 at indicated concentration (maximum activity) (EAAT2 [1]; [7]): 1.9 ± 0.1 (0.5 μM) fold

SMILES: O=C(Nc1ccc(-c2ccccn2)nn1)c1cc(F)ccn1
- Fold increase for EAAT2 at indicated concentration (maximum activity) (EAAT2 [1]; [6]): 1.7 ± 0.1 (0.25 μM) fold

SMILES: O=C(Nc1ccc(-c2ccccn2)nn1)c1ccc(F)cn1
- Fold increase for EAAT2 at indicated concentration (maximum activity) (EAAT2 [1]; [6]): 1.9 ± 0.2 (0.25 μM) fold

SMILES: O=C(Nc1ccc(-c2ccccn2)nn1)c1cccc(F)n1
- Fold increase for EAAT2 at indicated concentration (maximum activity) (EAAT2 [1]; [6]): 1.6 ± 0.1 (0.25 μM) fold

SMILES: O=C(Nc1ccc(-c2ccccn2)nn1)c1ccc(F)c(Cl)c1
- Fold increase for EAAT2 at indicated concentration (maximum activity) (EAAT2 [1]; [6]): 2.2 ± 0.4 (0.25 μM) fold

SMILES: O=C(Nc1ccc(-c2ccccn2)nn1)c1ccccc1Cl
- Fold increase for EAAT2 at indicated concentration (maximum activity) (EAAT2 [1]; [5]): 2.0 ± 0.2 (5 μM) fold

SMILES: O=C(Nc1ccc(-c2ccccn2)nn1)c1cccc(Cl)c1
- Fold increase for EAAT2 at indicated concentration (maximum activity) (EAAT2 [1]; [8]): 1.5 ± 0.1 (1 μM) fold

SMILES: O=C(Nc1ccc(-c2ccccn2)nn1)c1ccc(Cl)cc1
- Fold increase for EAAT2 at indicated concentration (maximum activity) (EAAT2 [1]; [8]): 1.5 ± 0.2 (1 μM) fold

SMILES: COc1ccc(C(=O)Nc2ccc(-c3ccccn3)nn2)cc1
- Fold increase for EAAT2 at indicated concentration (maximum activity) (EAAT2 [1]; [3]): 2.1 ± 0.2 (10 μM) fold

SMILES: NC(=O)COc1ccc(-c2ccccn2)nn1
- Fold increase for EAAT2 at indicated concentration (maximum activity) (EAAT2 [1]; [3]): 1.8 ± 0.2 (10 μM) fold

SMILES: Cc1ccccc1NC(=O)COc1ccc(-c2ccccn2)nn1
- Fold increase for EAAT2 at indicated concentration (maximum activity) (EAAT2 [1]; [3]): 2.4 ± 0.2 (10 μM) fold

SMILES: CN(C(=O)COc1ccc(-c2ccccn2)nn1)c1ccccc1
- Fold increase for EAAT2 at indicated concentration (maximum activity) (EAAT2 [1]; [3]): 2.2 ± 0.3 (10 μM) fold

SMILES: O=C(COc1ccc(-c2ccccn2)nn1)N1CCCCC1
- Fold increase for EAAT2 at indicated concentration (maximum activity) (EAAT2 [1]; [3]): 2.6 ± 0.1 (10 μM) fold

SMILES: CN(C)C(=O)COc1ccc(-c2ccccn2)nn1
- Fold increase for EAAT2 at indicated concentration (maximum activity) (EAAT2 [1]; [5]): 2.9 ± 0.2 (5 μM) fold

SMILES: O=C(Nc1ccc(-c2ccccn2)nn1)c1cncs1
- Fold increase for EAAT2 at indicated concentration (maximum activity) (EAAT2 [1]; [5]): 1.9 ± 0.1 (5 μM) fold

SMILES: c1ccc(-c2ccc(OCc3nccs3)nn2)nc1
- Fold increase for EAAT2 at indicated concentration (maximum activity) (EAAT2 [1]; [3]): 2.2 ± 0.3 (10 μM) fold

SMILES: Cn1cncc1COc1ccc(-c2ccccn2)nn1
- Fold increase for EAAT2 at indicated concentration (maximum activity) (EAAT2 [1]; [5]): 1.7 ± 0.1 (5 μM) fold

SMILES: Cn1ccnc1COc1ccc(-c2ccccn2)nn1
- Fold increase for EAAT2 at indicated concentration (maximum activity) (EAAT2 [1]; [5]): 1.9 ± 0.1 (5 μM) fold

SMILES: CC(Oc1ccc(-c2ccccn2)nn1)c1ccccn1 (centres unmarked)
- Fold increase for EAAT2 at indicated concentration (maximum activity) (EAAT2 [1]; [5]): 1.7 ± 0.1 (5 μM) fold

SMILES: CN(C)CCNc1ccc(-c2ccccn2)nn1
- Fold increase for EAAT2 at indicated concentration (maximum activity) (EAAT2 [1]; [5]): 2.4 ± 0.2 (5 μM) fold

SMILES: c1ccc(CNc2ccc(-c3ccccn3)nn2)cc1
- Fold increase for EAAT2 at indicated concentration (maximum activity) (EAAT2 [1]; [3]): 3.1 ± 0.3 (10 μM) fold

SMILES: c1ccc(-c2ccc(NCCCn3ccnc3)nn2)nc1
- Fold increase for EAAT2 at indicated concentration (maximum activity) (EAAT2 [1]; [5]): 3.3 ± 0.2 (5 μM) fold

SMILES: O=C(Nc1ccc(-c2ccccn2)nn1)c1ccc(F)cc1 [Example 4, 4-Fluoro-N-(6-(pyridin-2-yl)pyridazin-3-yl)benzamide]
- EAAT2 protein levels in mouse brain (EAAT2 [2]): dose-dependently increased EAAT2 levels

SMILES: O=C(Nc1ccc(-c2ccccn2)nn1)c1ccc(F)cc1 [drawing 110]
- Fold increase for EAAT2 at indicated concentration (maximum activity) (EAAT2 [1]; [6]): 2.5 ± 0.3 (0.25 μM) fold

SMILES: CNC(=O)COc1ccc(-c2ccccn2)nn1 [drawing 129]
- Fold increase for EAAT2 at indicated concentration (maximum activity) (EAAT2 [1]; [6]): 2.3 ± 0.1 (0.25 μM) fold

SMILES: CNC(=O)COc1ccc(-c2ccccn2)nn1 [drawing 130]
- Fold increase for EAAT2 at indicated concentration (maximum activity) (EAAT2 [1]; [3]): 1.8 ± 0.1 (10 μM) fold

Source: US10787433B2, “Pyridazine derivatives as EAAT2 activators” (THE BRIGHAM AND WOMEN'S HOSPITAL, INC., priority 2016, dated 2020)
